Test results: patent publication US7199113B2, “Pharmaceutically active compounds and methods of use thereof” (priority 1998, dated 2007)

Legend:
Format in all cases: biochemical
[1] = biological target: T1, FVIIa (Homo sapiens, UniProt P08709); experiment: FVIIa-dependent FX activation (TF omitted); details: statement on Table 2 (FIG. 2(b))
T1 construct: proteolytic cleavage of the zymogen FVII to the active serine protease FVIIa; purchased Enzyme Research Laboratories Inc
T1 sequence (P08709 213-466 limits assumed): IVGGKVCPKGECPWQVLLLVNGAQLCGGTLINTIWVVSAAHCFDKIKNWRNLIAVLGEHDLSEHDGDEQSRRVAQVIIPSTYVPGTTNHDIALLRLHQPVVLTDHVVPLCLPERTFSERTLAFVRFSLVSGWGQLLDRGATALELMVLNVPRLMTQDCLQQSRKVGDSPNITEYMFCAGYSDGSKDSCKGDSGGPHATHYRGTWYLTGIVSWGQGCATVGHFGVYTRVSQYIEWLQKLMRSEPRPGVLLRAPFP
T1 sequence (P08709 61-212 limits assumed): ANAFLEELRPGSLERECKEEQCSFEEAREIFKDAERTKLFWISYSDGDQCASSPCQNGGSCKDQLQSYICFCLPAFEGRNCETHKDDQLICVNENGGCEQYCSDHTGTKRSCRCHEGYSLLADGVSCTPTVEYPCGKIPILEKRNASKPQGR
Experimental: FVIIa alone in the presence of phospholipids and calcium is also able to activate FX, although at a very low rate. This experiment was designed to examine whether compounds 1 and 2 inhibit FVIIa-dependent FX activation if TF is omitted. […] This assay was done at relatively high FVIIa concentrations. Six microliters of compound 1(1 mM in 10% DMSO) or 10% DMSO was mixed with 40 μl of 25 mM HEPES-NaOH, 5 mM CaCl2, 150 mM NaCl, 0.1% BSA, pH 7.5 containing phosphatidylcholine (0.07 mg/ml) and phosphatidylserine (0.03 mg/ml). Then 4 μl of FVIIa (1.5 μM) and 10 μl of FX (180 nM) were added and mixed. The mixture was incubated for 1 hour at 37° C. Then 10 μl of EDTA (400 mM) was added to stop FVII activity by removing the calcium required for factor VII activity. Then 10 μl of FXa substrate S-2765 (3.2 mM) was added to measure the FXa activity generated by FVIIa. After 16 minutes incubation at 37° C., 20 μl of 50% acetic acid was added to quench the reaction. Absorbance at 405 nm was read and the percent inhibition of FVIIa-dependent FX activation was calculated from OD405 nm values in the absence and presence of compound 1.

[2] = biological target: T2, human recombinant TF/VIIa complex (lipidated) (Homo sapiens, UniProt P13726); experiment: TF/VIIa-dependent FX activation assay
T2 construct: Truncated recombinant human tissue factor (e.g. composed of 243 amino acids) is expressed in E. coli; host or cells: E. coli (TF)

[3] = biological target: T3, TF/FVIIa complex (Homo sapiens, UniProt P08709+P13726, DEL276-295); experiment: FVIIa activity assay (TF/VIIa catalytic activity toward S-2288); details: statement on Table 1 (FIG. 2(a))
T3 construct: proteolytic cleavage of the zymogen FVII to the active serine protease FVIIa; Truncated recombinant human tissue factor (e.g. composed of 243 amino acids) is expressed in E. coli; host or cells: E. coli (TF)
Experimental: Factor VIIa (FVIIa) activity, or the effect of TF and FVIIa interactions, can be determined in the presence of TF using FX and a small peptide (chromogenic) substrate or in the absence of TF using FX as substrate. Assays using FVIIa-specific chromogenic substrate S-2288 directly measures the effect of a compound on FVIIa catalytic activity. In this assay, 55 μl of TF/FVIIa complex (containing 10 nM TF and 10 nM VIIa) was first incubated with 5 μl of DMSO (or diluted DMSO) or compound, in a 96-well plate for 15 minutes at 37° C., then admixed with 20 μl of 8 mM S-2288. The reaction was incubated for 1–2 hours at 37° C. Absorbance at 405 nm was then measured after the reaction was quenched with 20 μl of 50% acetic acid. The percent inhibition of TF/VIIa activity was calculated from OD405 nm values in the absence and presence of a compound. […] Inhibition of TF/VIIa activity toward S-2288 by the two compounds would be expected if they were to bind to VIIa active site or prevent TF and VIIa from forming an active complex.

Structure (SMILES) | inhibition of FVIIa-dependent FX activation [1] | IC50 ([2]; TF/VIIa, FX and compound added simultaneously, FX 5 nM) | IC50 ([2]; TF/VIIa, FX and compound added simultaneously, FX 30 nM) | IC50 ([2]; compound preincubated with TF/VIIa 15 minutes at 37° C. prior to FX, FX 5 nM) | effect on TF/VIIa catalytic activity toward S-2288 [3]
O=P(O)(O)C(CNc1cccc(O)c1)P(=O)(O)O [Compound 1, 1-(bisphosponate)-2-amino(3-hydroxyphenyl)ethyl] | does not inhibit FVIIa-dependent FX activation | 18.1 µM | 33.2 µM | 8.3 µM | do not have significant effect
O=P(O)(O)C(CNc1ccc(O)cc1)P(=O)(O)O [Compound 2] |  |  |  |  | do not have significant effect
